{
  "source": "patent US9023336B2",
  "about": "“Deuterium-enriched aldehydes” (Protia, LLC, priority 2013, dated 2015)",
  "assay": "Measurement of aldehyde oxidations (air autoxidation of aldehyde to carboxylic acid)",
  "assay_type": "physicochemical",
  "conditions": "for amount of aldehyde remaining / loss of aldehyde: after 24 hours; for amount of aldehyde remaining: aldehyde 1 mmol in triacetin 2.0 mL + water 0.10 mL, stirred at room temperature under air, HPLC (benzaldehyde) or GC (hexanal); for loss of aldehyde: triacetin/water, room temperature, air",
  "procedure": "General Procedure for Measurement of Aldehyde Oxidations\nTo a 12 mL clear, colorless, glass vial, fitted with a stir bar, was added the aldehyde (1 mmol), triacetin (2.0 mL), and water (0.10 mL, purified by reverse osmosis). The top of the vial was covered with a tissue and the mixture was stirred vigorously at room temperature. In the benzaldehyde reactions, (both H and D), 4.0 μL aliquots were withdrawn at 0, 0.5, 18, 25, 96, and 120 hour time points. These were diluted with ethanol (1.0 mL), and analyzed by HPLC. […] These were diluted with ethanol (1.0 mL) and analyzed by GC.\nInstruments and Conditions Used for Analysis:\nHigh pressure liquid chromatography: Agilent XDB C18 50×4.6 mm 1.8 micron column\nSolvent A—Water (0.1% TFA)\nSolvent B—Acetonitrile (0.07% TFA)\nGradient—5 min 95% A to 95% B then 1 minute hold. 1.5 mL/min\nUV Detection (integration) @ 210 and 254 nm\nHP 6890GC Column=Agilent DB-5 15 m×0.25 mm capillary column.\n35° C. start (2 min hold), ramping to 100° C. at 5° C. per minute\nFlame Ion Detection (integration)",
  "data": [
    {"smiles": "[2H]C(=O)c1ccccc1", "note": "[benzaldehyde-D]", "values": [
      {"measurement": "amount of aldehyde remaining", "value": "approximately 90%"},
      {"measurement": "loss of aldehyde", "value": 10, "unit": "%"},
      {"measurement": "reduction of autoxidation due to deuterium versus un-enriched aldehyde", "setting": "after a period of approximately 24 hours", "value": "over 50%"}
    ]},
    {"smiles": "O=Cc1ccccc1", "note": "[benzaldehyde-H, benzaldehyde, reference compound]", "values": [
      {"measurement": "amount of aldehyde remaining", "value": "approximately 30%"},
      {"measurement": "loss of aldehyde", "value": 70, "unit": "%"}
    ]}
  ]
}
